What is called inhibition is the relative decrease from the control value, in per cent.

Consider 27 compounds from US20240208978A1, “IDH MUTANT INHIBITOR AND USE THEREOF” (WIGEN BIOMEDICINE TECHNOLOGY (SHANGHAI) CO., LTD., priority 2021, published 2024).

Where only a bound is given, the exact number is not on record here.

The experiment concerns the target T1, mIDH1 R132H (Homo sapiens, UniProt O75874, R132H).
T1 construct: expressed in transfected cells; host or cells: U87MG
The experiment is described as follows: Detection of 2-HG in supernatant of U87-IDH1 R132H cells. It counts as cell-based. As to conditions: U-87 MG, 72 h, U87MG cells overexpressing mIDH1 R132H, LC-MS-MS; for inhibition at 0.001 µM: 1 nM compound, read-out: Inhibition rate on 2-HG in the supernatant of U87-IDH R132H cells, 1 nM; for inhibition at 0.01 µM: 10 nM compound, read-out: Inhibition rate on 2-HG in the supernatant of U87-IDH R132H cells, 10 nM; for inhibition at 0.1 µM: 100 nM compound, read-out: Inhibition rate on 2-HG in the supernatant of U87-IDH R132H cells, 100 nM. As for the experimental part:
U87MG cells overexpressing the mIDH1 R132H mutation or HT1080 cells carrying IDH1 R132C were seeded in a 48-well plate and a 96-well plate at 50,000 cells/well and 10,000 cells/well, respectively. After the cells were incubated overnight for adhesion, the supernatants were removed. The cell culture media containing serially diluted compounds were added, and the cells were incubated for 72 h. After 72 h, the culture media were collected and diluted 10-fold and 20-fold with water, respectively. Acetonitrile was added to extract the metabolites. The 2-HG content in the culture media was analyzed by LC-MS-MS. The percentage inhibition and IC50 of the compounds on 2-HG in the supernatant were calculated as compared with the control group.

T1 sequence (O75874 whole entry R132H): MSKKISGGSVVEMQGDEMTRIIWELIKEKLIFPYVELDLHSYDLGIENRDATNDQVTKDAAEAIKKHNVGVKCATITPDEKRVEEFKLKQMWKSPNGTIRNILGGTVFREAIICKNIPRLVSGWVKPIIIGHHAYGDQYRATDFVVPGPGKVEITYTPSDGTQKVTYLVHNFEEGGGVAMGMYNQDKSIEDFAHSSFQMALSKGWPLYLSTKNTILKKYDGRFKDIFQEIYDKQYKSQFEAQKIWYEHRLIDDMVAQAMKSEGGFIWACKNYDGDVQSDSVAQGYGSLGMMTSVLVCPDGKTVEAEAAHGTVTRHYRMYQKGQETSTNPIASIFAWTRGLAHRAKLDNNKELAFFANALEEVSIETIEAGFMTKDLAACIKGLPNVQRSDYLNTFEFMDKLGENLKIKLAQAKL

On to `C=CC(=O)N1CCN(C(CC2CC2)c2ccc([C@H](C)Nc3ncc4c(n3)n(CC)c(=O)n4C)cc2)CC1` (stereo partly drawn) [Compound 37], for which the inhibition at 0.001 µM is under 30%, the inhibition at 0.01 µM lay in the range of 60 to 90% and the inhibition at 0.1 µM was 60 to 90%.
Turning to `C=CC(=O)N1CCN(C2(c3ccc([C@H](C)Nc4ncc5[nH]c(=O)n(CC)c5n4)cc3)CCCC2)CC1` [Compound 15], the inhibition at 0.001 µM is 30 to 60%, the inhibition at 0.01 µM is over 90% and the inhibition at 0.1 µM was over 90%.
Regarding `C=CC(=O)N1CCN(C(CC23CC(C2)C3)c2ccc([C@H](C)Nc3ncc4[nH]c(=O)n(C(C)C)c4n3)cc2)CC1` (stereo partly drawn) [Compound 33], the inhibition at 0.001 µM lay in the range of 60 to 90%, the inhibition at 0.01 µM is over 90% and the inhibition at 0.1 µM was over 90%.
Regarding `C=CC(=O)N1CCN(C(CC23CC(C2)C3)c2ccc([C@H](C)Nc3ncc4[nH]c(=O)n(C5CC5)c4n3)cc2)CC1` (stereo partly drawn) [Compound 34], the inhibition at 0.001 µM lay in the range of 60 to 90%, the inhibition at 0.01 µM is over 90% and the inhibition at 0.1 µM was over 90%.
Take `C=CC(=O)N1CCN(C(CC)c2ccc([C@H](C)Nc3ncc4[nH]c(=O)n(CC)c4n3)cc2)CC1` (stereo partly drawn) [Compound 7]: the inhibition at 0.001 µM was in the range of 30 to 60%, the inhibition at 0.01 µM was in the range of 60 to 90% and the inhibition at 0.1 µM was over 90%.
The corresponding values for `C=CC(=O)N1CCN(C(CC(C)C)c2ccc([C@H](C)Nc3ncc4[nH]c(=O)n(C(C)C)c4n3)cc2)CC1` (stereo partly drawn) [Compound 29] are 60 to 90%, over 90% and over 90%.
The corresponding values for `C=CC(=O)N(C)C1CCN(C(CC2CC2)c2ccc([C@H](C)Nc3ncc4[nH]c(=O)n(CC)c4n3)cc2)CC1` (stereo partly drawn) [Compound 28] are 30 to 60%, 60 to 90% and over 90%.
Regarding `C=CC(=O)N1CCN(C(CC(C)C)c2ccc([C@H](C)Nc3ncc4[nH]c(=O)n(CC)c4n3)cc2)CC1` (stereo partly drawn) [Compound 8], the inhibition at 0.001 µM is 30 to 60%, the inhibition at 0.01 µM is over 90% and the inhibition at 0.1 µM was over 90%.
On to `C=CC(=O)N1CC2(C1)CN(C(CC1CC1)c1ccc([C@H](C)Nc3ncc4[nH]c(=O)n(CC)c4n3)cc1)C2` (stereo partly drawn) [Compound 18], for which the inhibition at 0.001 µM fell in the range of 30 to 60%, the inhibition at 0.01 µM is over 90% and the inhibition at 0.1 µM is over 90%.
As for `C=CC(=O)N1CCN(C(CC23CC(C2)C3)c2ccc([C@H](C)Nc3ncc4[nH]c(=O)n(C5CCCC5)c4n3)cc2)CC1` (stereo partly drawn) [Compound 36], the inhibition at 0.001 µM is 30 to 60%, the inhibition at 0.01 µM is over 90% and the inhibition at 0.1 µM was over 90%.
In the case of `C=CC(=O)N1CCN(C(CC2(C)CC2)c2ccc([C@H](C)Nc3ncc4[nH]c(=O)n(CC)c4n3)cc2)CC1` (stereo partly drawn) [Compound 13], the inhibition at 0.001 µM lay within 30 to 60%, the inhibition at 0.01 µM is 60 to 90% and the inhibition at 0.1 µM was over 90%.
On the same counts, the results for `C=CC(=O)N1CCN(C2(c3ccc([C@H](C)Nc4ncc5[nH]c(=O)n(CC)c5n4)cc3)CCC(F)(F)CC2)CC1` [Compound 17] are 30 to 60%, 60 to 90% and over 90%.
Regarding `C=CC(=O)N1CCN(C(CC23CC(C2)C3)c2ccc([C@H](C)Nc3ncc4[nH]c(=O)n(C5CCC5)c4n3)cc2)CC1` (stereo partly drawn) [Compound 35], the inhibition at 0.001 µM was 30 to 60%, the inhibition at 0.01 µM was over 90% and the inhibition at 0.1 µM is over 90%.
Regarding `C=CC(=O)N1CCN(C(CC2CC2)c2ccc(C3(Nc4ncc5[nH]c(=O)n(CC)c5n4)CC3)cc2)CC1` (stereo not drawn) [Compound 39], the inhibition at 0.001 µM was under 30%, the inhibition at 0.01 µM lay within 60 to 90% and the inhibition at 0.1 µM is over 90%.
For the compound `C=CC(=O)N1CC2(CCN(C(CC3CC3)c3ccc([C@H](C)Nc4ncc5[nH]c(=O)n(CC)c5n4)cc3)CC2)C1` (stereo partly drawn) [Compound 22], the inhibition at 0.001 µM was 60 to 90%, the inhibition at 0.01 µM lay within 60 to 90% and the inhibition at 0.1 µM was over 90%.
Consider `C=CC(=O)N1CCN(C(CC(C)C)c2ccc([C@H](C)Nc3ncc4[nH]c(=O)n(C5CCC5)c4n3)cc2)CC1` (stereo partly drawn) [Compound 31], for which the inhibition at 0.001 µM was 30 to 60%, the inhibition at 0.01 µM is over 90% and the inhibition at 0.1 µM is over 90%.
Take `C=CC(=O)N1CCC2(C1)CN(C(CC1CC1)c1ccc([C@H](C)Nc3ncc4[nH]c(=O)n(CC)c4n3)cc1)C2` (stereo partly drawn) [Compound 19]: the inhibition at 0.001 µM lay within 30 to 60%, the inhibition at 0.01 µM lay in the range of 60 to 90% and the inhibition at 0.1 µM was over 90%.
The corresponding values for `C=CC(=O)N1CCN(C(CC(C)C)c2ccc([C@H](C)Nc3ncc4[nH]c(=O)n(C5CC5)c4n3)cc2)CC1` (stereo partly drawn) [Compound 30] are 30 to 60%, over 90% and over 90%.
As for `C=CC(=O)N1CCN(C2(c3ccc([C@H](C)Nc4ncc5[nH]c(=O)n(CC)c5n4)cc3)CCCCC2)CC1` [Compound 16], the inhibition at 0.001 µM lay in the range of 30 to 60%, the inhibition at 0.01 µM lay in the range of 60 to 90% and the inhibition at 0.1 µM is over 90%.
With `C=CC(=O)N1CCN(C(CC(C)(C)C)c2ccc([C@H](C)Nc3ncc4[nH]c(=O)n(CC)c4n3)cc2)CC1` (stereo partly drawn) [Compound 11], the inhibition at 0.001 µM was 30 to 60%, the inhibition at 0.01 µM lay in the range of 60 to 90% and the inhibition at 0.1 µM is over 90%.
The corresponding values for `C=CC(=O)N1CCN(C(CC2CC2)c2ccc([C@H](C)Nc3ncc4c(n3)n(C(C)C)c(=O)n4C)cc2)CC1` (stereo partly drawn) [Compound 38] are under 30%, 60 to 90% and 60 to 90%.
As for `C=CC(=O)N1CCN(C(CC2CC2)c2ccc([C@H](C)Nc3ncc4[nH]c(=O)n(C5CC5)c4n3)cc2)CC1` (stereo partly drawn) [Compound 4], the inhibition at 0.001 µM was in the range of 30 to 60%, the inhibition at 0.01 µM is over 90% and the inhibition at 0.1 µM is over 90%.
In the case of `C=CC(=O)N1CCC(N(C)C(CC2CC2)c2ccc([C@H](C)Nc3ncc4[nH]c(=O)n(CC)c4n3)cc2)CC1` (stereo partly drawn) [Compound 23], the inhibition at 0.001 µM lay in the range of 30 to 60%, the inhibition at 0.01 µM was 60 to 90% and the inhibition at 0.1 µM is over 90%.
For `C=CC(=O)N1CC(N(C)C(CC2CC2)c2ccc([C@H](C)Nc3ncc4[nH]c(=O)n(CC)c4n3)cc2)C1` (stereo partly drawn) [Compound 24], the inhibition at 0.001 µM lay within 30 to 60%, the inhibition at 0.01 µM was in the range of 60 to 90% and the inhibition at 0.1 µM is over 90%.
The corresponding values for `C=CC(=O)N1CCN(C(CC2CC2)c2ccc([C@H](C)Nc3ncc4[nH]c(=O)n(C)c4n3)cc2)CC1` (stereo partly drawn) [Compound 2] are 30 to 60%, 60 to 90% and over 90%.
On to `C=CC(=O)NC1CN(C(CC2CC2)c2ccc([C@H](C)Nc3ncc4[nH]c(=O)n(CC)c4n3)cc2)C1` (stereo partly drawn) [Compound 25], for which the inhibition at 0.001 µM is 60 to 90%, the inhibition at 0.01 µM was in the range of 60 to 90% and the inhibition at 0.1 µM is over 90%.
Take `C=CC(=O)N1CC2(CCN(C(CC3CC3)c3ccc([C@H](C)Nc4ncc5[nH]c(=O)n(CC)c5n4)cc3)C2)C1` (stereo partly drawn) [Compound 21]: the inhibition at 0.001 µM lay in the range of 30 to 60%, the inhibition at 0.01 µM was 60 to 90% and the inhibition at 0.1 µM was over 90%.
